Test results taken from patent US7728003B2, “5-oxo-5,8-dihydro-pyrido-pyrimidines as inhibitors of c-fms kinase” (Janssen Pharmaceutica N.V., priority 2005, dated 2010).

Target: c-fms (Homo sapiens, UniProt P07333)
Test: c-fms autophosphorylation, fluorescence polarization competition immunoassay
Format: biochemical
Conditions: 10 nM c-fms, 1 mM ATP; for inhibition at 0.1 µM: test concentration 0.1 μM, read-out: c-fms Autophosphorylation Percent Inhibition, % @ 0.1 μM; for inhibition at 1 µM: test concentration 1 μM, read-out: c-fms Autophosphorylation Percent Inhibition, % @ 1 μM; for IC50: average of three independent measurements
Procedure: The assay buffer used was 100 mM 4-(2-hydroxyethyl)piperazine 1-ethanesulfonic acid (HEPES), pH 7.5, 1 mM 1,4-dithio-DL-threitol (DTT), 0.01% (v/v) Tween-20. Compounds were diluted in assay buffer containing 4% dimethylsulfoxide (DMSO) just prior to the assay. To each well, 5 μL of compound were added followed by the addition of 3 μL of a mix containing 33 nM c-fms and 16.7 mM MgCl2 (Sigma) in assay buffer. The kinase reaction was initiated by adding 2 μL of 5 mM ATP (Sigma) in assay buffer. The final concentrations in the assay were 10 nM c-fms, 1 mM ATP, 5 mM MgCl2, 2% DMSO. Control reactions were ran in each plate: in positive and negative control wells, assay buffer (made 4% in DMSO) was substituted for the compound; in addition, positive control wells received 1.2 μL of 50 mM ethylenediaminetetraaceticacid (EDTA).
The plates were incubated at room temperature for 45 min. At the end of the incubation, the reaction was quenched with 1.2 μL of 50 mM EDTA (EDTA was not added to the positive control wells at this point; see above). Following a 5-min incubation, each well received 10 μL of a 1:1:3 mixture of anti-phosphotyrosine antibody, 10X, PTK green tracer, 10X (vortexed), FP dilution buffer, respectively (all from PanVera, cat. # P2837). The plate was covered, incubated for 30 min at room temperature and the fluorescence polarization was read on the Analyst. The instrument settings were: 485 nm excitation filter; 530 nm emission filter; Z height: middle of well; G factor: 0.93.
The percent inhibition is shown in Table 1 at the indicated test concentration. The IC50 shown in Table 2 are averages of three independent measurements.

Chain of c-fms (P07333 20-972): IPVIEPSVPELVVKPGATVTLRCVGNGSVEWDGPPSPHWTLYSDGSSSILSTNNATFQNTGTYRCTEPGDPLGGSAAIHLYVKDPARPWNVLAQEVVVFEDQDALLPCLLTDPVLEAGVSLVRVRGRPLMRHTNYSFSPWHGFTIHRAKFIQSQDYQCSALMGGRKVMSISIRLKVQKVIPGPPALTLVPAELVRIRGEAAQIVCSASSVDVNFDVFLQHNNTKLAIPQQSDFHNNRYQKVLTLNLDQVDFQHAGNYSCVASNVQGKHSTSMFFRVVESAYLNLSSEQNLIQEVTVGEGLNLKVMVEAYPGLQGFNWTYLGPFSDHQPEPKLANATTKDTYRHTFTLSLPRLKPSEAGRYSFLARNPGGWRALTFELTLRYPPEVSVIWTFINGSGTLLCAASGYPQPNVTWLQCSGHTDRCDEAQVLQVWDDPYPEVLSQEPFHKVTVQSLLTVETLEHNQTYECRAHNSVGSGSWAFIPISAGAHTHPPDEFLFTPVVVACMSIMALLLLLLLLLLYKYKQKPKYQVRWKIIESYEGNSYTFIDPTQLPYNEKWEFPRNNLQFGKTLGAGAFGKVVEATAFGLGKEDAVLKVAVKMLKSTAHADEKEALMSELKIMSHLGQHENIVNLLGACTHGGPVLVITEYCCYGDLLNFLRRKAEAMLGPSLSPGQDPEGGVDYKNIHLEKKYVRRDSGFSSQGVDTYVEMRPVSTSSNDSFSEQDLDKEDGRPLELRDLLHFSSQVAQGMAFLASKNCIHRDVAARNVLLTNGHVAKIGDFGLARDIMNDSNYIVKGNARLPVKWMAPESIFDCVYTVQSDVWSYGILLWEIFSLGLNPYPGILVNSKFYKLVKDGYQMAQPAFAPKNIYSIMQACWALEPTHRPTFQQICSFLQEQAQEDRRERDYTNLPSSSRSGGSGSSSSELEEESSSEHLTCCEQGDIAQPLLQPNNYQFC

| SMILES | inhibition at 0.1 µM [%] | inhibition at 1 µM [%] | IC50 [nM] |
| --- | --- | --- | --- |
| COCCNc1ncc2c(=O)c(C(=O)NOC)cn(-c3ccc4c(c3)CCC4)c2n1 [Cpd 23, 8-Indan-5-yl-2-(2-methoxy-ethylamino)-5-oxo-5,8-dihydro-pyrido[2,3-d]pyrimidine-6-carboxylic acid methoxy-amide] | 51 | 65 |  |
| CONC(=O)c1cn(C2CCCCC2)c2nc(NCCCN3CCCC3)ncc2c1=O [Cpd 46, 8-Cyclohexyl-5-oxo-2-(3-pyrrolidin-1-yl-propylamino)-5,8-dihydro-pyrido[2,3-d]pyrimidine-6-carboxylic acid methoxy-amide] | 28 | 51 |  |
| CN1CCN(CCCNc2ncc3c(=O)c(C(N)=O)cn(-c4ccc5c(c4)CCC5)c3n2)CC1 [Cpd 1, 8-Indan-5-yl-2-[4-(4-methyl-piperazin-1-yl)-propylamino]-5-oxo-5,8-dihydro-pyrido[2,3-d]pyrimidine-6-carboxylic acid amide] | 24 | 69.1 |  |
| CNC(=O)c1cn(-c2ccc3c(c2)CCC3)c2nc(NCCCN(C)C)ncc2c1=O [Cpd 12, 2-(3-Dimethylamino-propylamino)-8-indan-5-yl-5-oxo-5,8-dihydro-pyrido[2,3-d]pyrimidine-6-carboxylic acid methylamide] | 2 | 13 |  |
| CNC(=O)c1cn(-c2ccc3c(c2)CCC3)c2nc(NCCCN3CCCC3=O)ncc2c1=O [Cpd 14, 8-Indan-5-yl-5-oxo-2-[3-(2-oxo-pyrrolidin-1-yl)-propylamino]-5,8-dihydro-pyrido[2,3-d]pyrimidine-6-carboxylic acid methylamide] | 5 | 24 |  |
| NC(=O)c1cn(-c2ccc3c(c2)CCC3)c2nc(NCCN3CCOCC3)ncc2c1=O [Cpd 4, 8-Indan-5-yl-2-(2-morpholin-4-yl-ethylamino)-5-oxo-5,8-dihydro-pyrido[2,3-d]pyrimidine-6-carboxylic acid amide] |  |  | 3300 |
| CONC(=O)c1cn(C2CCCCC2)c2nc(NCc3cc(OC)cc(OC)c3)ncc2c1=O [Cpd 52, 8-Cyclohexyl-2-(3,5-dimethoxy-benzylamino)-5-oxo-5,8-dihydro-pyrido[2,3-d]pyrimidine-6-carboxylic acid methoxy-amide] | 23 | 53 |  |
| COc1cc(CNc2ncc3c(=O)c(C(N)=O)cn(C4CCCCC4)c3n2)cc(OC)c1 [Cpd 40, 8-Cyclohexyl-2-(3,5-dimethoxy-benzylamino)-5-oxo-5,8-dihydro-pyrido[2,3-d]pyrimidine-6-carboxylic acid amide] | 10 | 47 |  |
| CONC(=O)c1cn(C2CCCCC2)c2nc(NCCCN3CCN(C)CC3)ncc2c1=O [Cpd 45, 8-Cyclohexyl-2-[3-(4-methyl-piperazin-1-yl)-propylamino]-5-oxo-5,8-dihydro-pyrido[2,3-d]pyrimidine-6-carboxylic acid methoxy-amide] | 43 | 67 |  |
| CNC(=O)c1cn(C2CCCCC2)c2nc(NCCN3CCOCC3)ncc2c1=O [Cpd 60, 8-Cyclohexyl-2-(2-morpholin-4-yl-ethylamino)-5-oxo-5,8-dihydro-pyrido[2,3-d]pyrimidine-6-carboxylic acid methylamide] | 12 | 18 |  |
| NC(=O)c1cn(C2CCCCC2)c2nc(NCCN3CCCCC3)ncc2c1=O [Cpd 38, 8-Cyclohexyl-5-oxo-2-(2-piperidin-1-yl-ethylamino)-5,8-dihydro-pyrido[2,3-d]pyrimidine-6-carboxylic acid amide] | 19 | 56 |  |
| NC(=O)c1cn(-c2ccc3c(c2)CCC3)c2nc(NCCCN3CCOCC3)ncc2c1=O [Cpd 5] |  |  | 2600 |
| NC(=O)c1cn(C2CCCCC2)c2nc(NCCCn3ccnc3)ncc2c1=O [Cpd 28, 8-Cyclohexyl-2-(3-imidazol-1-yl-propylamino)-5-oxo-5,8-dihydro-pyrido[2,3-d]pyrimidine-6-carboxylic acid amide] | 31 | 69 |  |
